Data on 40 compounds can be found in patent publication US8586739B2, “Heterocyclic compounds and their uses” (Amgen Inc., priority 2007, dated 2013).

The subject of this test is human B cells. The experiment in a line: Human B cells proliferation stimulated by anti-IgM (3H thymidine). Format: cell-based. The method, then: Human B Cells Proliferation stimulate by anti-IgM
Isolate PBMCs from Leukopac or from human fresh blood. Isolate human B cells by using Miltenyi protocol and B cell isolation kit II.—human B cells were Purified by using autoMACS® column.
Activation of Human B Cells
Use 96 well Flat bottom plate, plate 50000/well purified B cells in B cell proffer-ation medium (DMEM+5% FCS, 10 mM Hepes, 50 μM 2-mercaptoethanol); 150 μL medium contain 250 ng/mL CD40L-LZ recombinant protein (Amgen) and 2 μg/mL anti-Human IgM antibody (Jackson ImmunoReseach Lab.#109-006-129), mixed with 50 μL B cell medium containing PI3K inhibitors and incubate 72 h at 37° C. incubator. After 72 h, pulse labeling B cells with 0.5-1 uCi/well ^3H thymidine for overnight ˜18 h, and harvest cell using TOM harvester.

Where [1] appears, read: Homo sapiens, B-cell, 72 h, purified human B cells, anti-Human IgM + CD40L-LZ.

The IC50 is the concentration at which inhibition is half-maximal. Consider `C[C@H](Nc1ncnc2[nH]cnc12)c1cc2ccc(F)cc2nc1-c1cccc(F)n1` [N-((1S)-1-(7-fluoro-2-(6-fluoro-2-pyridinyl)-3-quinolinyl)ethyl)-9H-purin-6-amine], for which, under setting [1], the IC50 was determined as 3.72 nM.
Take `Clc1ccccc1-c1nc2c(Cl)cccc2cc1CNc1ccnc2[nH]cnc12` [N-((8-chloro-2-(2-chlorophenyl)-3-quinolinyl)methyl)-3H-imidazo[4,5-b]pyridin-7-amine]: the IC50 under setting [1] came out at 361 nM.
Regarding `C[C@H](Nc1ncnc2[nH]cnc12)c1cc2cccc(Cl)c2nc1-c1cc(F)cc(F)c1` [N-((1S)-1-(8-chloro-2-(3,5-difluorophenyl)-3-quinolinyl)ethyl)-9H-purin-6-amine], the IC50 was 5.04 nM under setting [1] and 5.04 nM (Homo sapiens, B-cell, purified human B cells, anti-Human IgM + CD40L-LZ, 72 h).
Consider `Fc1cccc(-c2nc3c(Cl)cccc3cc2CNc2ncnc3[nH]cnc23)c1` [N-((8-chloro-2-(3-fluorophenyl)-3-quinolinyl)methyl)-9H-purin-6-amine], for which the IC50 under setting [1] was found to be 27.5 nM.
As for `Clc1cccc2cc(CNc3ncnc4[nH]cnc34)c(-c3ccccc3-c3nn[nH]n3)nc12` [N-((8-chloro-2-(2-(2H-tetrazol-5-yl)phenyl)-3-quinolinyl)methyl)-9H-purin-6-amine], under setting [1], the IC50 amounted to 9710 nM.
For `C[C@H](Nc1ncnc2[nH]cnc12)c1cc2ccc(F)cc2nc1-c1cc(F)ccc1Cl` [N-((1S)-1-(2-(2-chloro-5-fluorophenyl)-7-fluoro-3-quinolinyl)ethyl)-9H-purin-6-amine], the IC50 under setting [1] came out at 20 nM.
`C[C@H](Nc1ncnc2[nH]cnc12)c1cc2c(Cl)cccc2nc1-c1cccc(F)c1` [N-((S)-1-(5-Chloro-2-(3-fluorophenyl)quinolin-3-yl)ethyl)-9H-purin-6-amine]: the IC50 under setting [1] was determined as 14.2 nM.
For `C[C@H](Nc1ncnc2[nH]cnc12)c1cc2cccc(Cl)c2nc1-c1cncc(F)c1` [N-((1S)-1-(8-chloro-2-(5-fluoro-3-pyridinyl)-3-quinolinyl)ethyl)-9H-purin-6-amine], the IC50 under setting [1] was determined as 3.57 nM.
As for `C[C@H](Nc1ncnc2[nH]cnc12)c1cc2ccc(F)cc2nc1-c1ccccc1` [N-((1S)-1-(7-fluoro-2-phenyl-3-quinolinyl)ethyl)-9H-purin-6-amine], the IC50 under setting [1] is 5.11 nM.
Same read-out and setting: to `OC1CCCN(c2nc3c(Cl)cccc3cc2CNc2ncnc3[nH]cnc23)C1` (centres unmarked) [1-(8-chloro-3-((9H-purin-6-ylamino)methyl)-2-quinolinyl)-3-piperidinol] belongs 98.8 nM; to `Clc1ccccc1-c1nc2c(Cl)cccc2nc1CNc1ncnc2[nH]cnc12` [N-((5-chloro-3-(2-chlorophenyl)-2-quinoxalinyl)methyl)-9H-purin-6-amine], 82.5 nM; to `Oc1ccc(F)cc1-c1nc2c(Cl)cccc2cc1CNc1ncnc2[nH]cnc12` [2-(8-chloro-3-((9H-purin-6-ylamino)methyl)-2-quinolinyl)-4-fluorophenol], 819 nM.
As for `Fc1cc(F)cc(-c2nc3c(Cl)cccc3cc2CNc2ncnc3[nH]cnc23)c1` [N-((8-chloro-2-(3,5-difluorophenyl)-3-quinolinyl)methyl)-9H-purin-6-amine], the IC50 under setting [1] is 56 nM.
Still for that read-out and setting: to `C[C@H](Nc1ncnc2[nH]cnc12)c1cc2ccc(F)cc2nc1-c1ccccc1S(C)(=O)=O` [N-((1S)-1-(7-fluoro-2-(2-(methylsulfonyl)phenyl)-3-quinolinyl)ethyl)-9H-purin-6-amine] belongs 6.82 nM; to `Clc1cccc2cc(COc3ncnc4[nH]cnc34)c(-c3ccccc3)nc12` [8-chloro-2-phenyl-3((9H-purin-6-yloxy)methyl)quinoline], 81.4 nM; to `FC(F)(F)c1ccncc1-c1nc2c(Cl)cccc2cc1CNc1ncnc2[nH]cnc12` [N-((8-chloro-2-(4-(trifluoromethyl)-3-pyridinyl)-3-quinolinyl)methyl)-9H-purin-6-amine], 69.5 nM.
`CS(=O)(=O)c1ccccc1-c1nc2c(Cl)cccc2cc1CNc1ncnc2[nH]cnc12` [N-((8-chloro-2-(2-(methylsulfonyl)phenyl)-3-quinolinyl)methyl)-9H-purin-6-amine]: the IC50 under setting [1] was 151 nM.
Consider `CC(C)c1ccncc1-c1nc2c(Cl)cccc2cc1CNc1ncnc2[nH]cnc12` [N-((8-chloro-2-(4-(1-methylethyl)-3-pyridinyl)-3-quinolinyl)methyl)-9H-purin-6-amine], for which, under setting [1], the IC50 was determined as 25.8 nM.
The same measure, in the same setting: to `FC1CCCN(c2nc3c(Cl)cccc3cc2CNc2ncnc3[nH]cnc23)C1` (centres unmarked) [N-((8-chloro-2-(3-fluoro-1-piperidinyl)-3-quinolinyl)methyl)-9H-purin-6-amine] belongs 95.5 nM.
Still for that read-out and setting: under `COc1nc(-c2nc3c(Cl)cccc3cc2[C@H](C)Nc2ncnc3[nH]cnc23)cs1` [N-((1S)-1-(8-chloro-2-(2-methoxy-1,3-thiazol-4-yl)-3-quinolinyl)ethyl)-9H-purin-6-amine] stands 17.5 nM; under `C[C@H](Nc1ncnc2[nH]cnc12)c1cc2cccc(Cl)c2nc1-c1cccc(F)c1F` [N-((S)-1-(8-Chloro-2-(2,3-difluorophenyl)quinolin-3-yl)ethyl)-9H-purin-6-amine], 7.59 nM.
With `CCc1ncccc1-c1nc2c(Cl)cccc2cc1[C@H](C)Nc1ncnc2[nH]cnc12` [N-((1S)-1-(8-chloro-2-(2-ethyl-3-pyridinyl)-3-quinolinyl)ethyl)-9H-purin-6-amine], the IC50 under setting [1] was 3.31 nM.
With `C[C@H](Nc1ncnc2[nH]cnc12)c1cc2cccc(Cl)c2nc1-c1ccc(F)cc1` [N-((1S)-1-(8-chloro-2-(4-fluorophenyl)-3-quinolinyl)ethyl)-9H-purin-6-amine], the IC50 under setting [1] is 10.5 nM.
Still for that read-out and setting: to `N#Cc1cccc2cc(CNc3ncnc4[nH]cnc34)c(-c3cccc(F)c3)nc12` [2-(3-fluorophenyl)-3-((9H-purin-6-ylamino)methyl)-8-quinolinecarbonitrile] belongs 300 nM; to `C[C@H](Nc1ncnc2[nH]cnc12)c1cc2cccc(Cl)c2nc1-c1cccc(Cl)c1` [N-((1S)-1-(8-chloro-2-(3-chlorophenyl)-3-quinolinyl)ethyl)-9H-purin-6-amine], 5.52 nM.
Same read-out and setting: under `C[C@H](Nc1ncnc2[nH]cnc12)c1cc2ccccc2nc1-c1ccccn1` [N-((1S)-1-(2-(2-pyridinyl)-3-quinolinyl)ethyl)-9H-purin-6-amine] stands 5.6 nM; under `C[C@H](Nc1ncnc2[nH]cnc12)c1cc2cccc(Cl)c2nc1-c1cccc(F)c1` [N-((1S)-1-(8-chloro-2-(3-fluorophenyl)-3-quinolinyl)ethyl)-9H-purin-6-amine], 2.42 nM.
Same read-out and setting: to `C[C@H](Nc1ncnc2[nH]cnc12)c1cc2cccc(C#N)c2nc1-c1cccc(F)c1` [2-(3-fluorophenyl)-3-((1S)-1-(9H-purin-6-ylamino)ethyl)-8-quinolinecarbonitrile] belongs 3.38 nM.
For the compound `COc1ccc(F)cc1-c1nc2c(Cl)cccc2cc1CNc1ncnc2[nH]cnc12` [N-((8-chloro-2-(5-fluoro-2-methoxyphenyl)-3-quinolinyl)methyl)-9H-purin-6-amine], the IC50 under setting [1] came out at 27.4 nM.
In the case of `C[C@H](Nc1ncnc2nc[nH]c12)c1cc2cccc(F)c2nc1-c1cc(F)ccc1Cl` [N-((1S)-1-(2-(2-chloro-5-fluorophenyl)-8-fluoro-3-quinolinyl)ethyl)-7H-purin-6-amine], the IC50 under setting [1] worked out at 33.7 nM.
On the same count and under the same terms, under `Fc1ccc(-c2nc3c(Cl)cccc3cc2CNc2ncnc3nc[nH]c23)cc1` [N-((8-chloro-2-(4-fluorophenyl)-3-quinolinyl)methyl)-7H-purin-6-amine] stands 265 nM.
Still for that read-out and setting: under `CC(C)c1ncccc1-c1nc2c(Cl)cccc2cc1CNc1ncnc2[nH]cnc12` [N-((8-chloro-2-(2-(1-methylethyl)-3-pyridinyl)-3-quinolinyl)methyl)-9H-purin-6-amine] stands 30.6 nM; under `C[C@H](Nc1ncnc2[nH]cnc12)c1cc2ccc(F)cc2nc1-c1cccnc1` [N-((1S)-1-(7-fluoro-2-(3-pyridinyl)-3-quinolinyl)ethyl)-9H-purin-6-amine], 12.2 nM.
Regarding `C[C@H](Nc1ncnc2[nH]cnc12)c1cc2cccc(Cl)c2nc1-c1cccnc1` [N-((1S)-1-(8-chloro-2-(3-pyridinyl)-3-quinolinyl)ethyl)-9H-purin-6-amine], under setting [1], the IC50 is 3.44 nM.
As to `C[C@H](Nc1ncnc2[nH]cnc12)c1cc2cccc(Cl)c2nc1-c1ccc(F)cc1F` [N-((1S)-1-(8-chloro-2-(2,4-difluorophenyl)-3-quinolinyl)ethyl)-9H-purin-6-amine], the IC50 under setting [1] came out at 14 nM.
Still for that read-out and setting: under `C[C@H](Nc1ncnc2[nH]cnc12)c1cc2ccc(F)cc2nc1-c1cccc(S(C)(=O)=O)c1` [N-((1S)-1-(7-fluoro-2-(3-(methylsulfonyl)phenyl)-3-quinolinyl)ethyl)-9H-purin-6-amine] stands 148 nM; under `C[C@H](Nc1ncnc2[nH]cnc12)c1cc2cccc(Cl)c2nc1-c1cccc(S(C)(=O)=O)c1` [N-((1S)-1-(8-chloro-2-(3-(methylsulfonyl)phenyl)-3-quinolinyl)ethyl)-9H-purin-6-amine], 55.8 nM.
The same measure, in the same setting: to `C[C@H](Nc1ncnc2[nH]cnc12)c1cc2cccc(Cl)c2nc1-c1cc(F)ccc1Cl` [N-((1S)-1-(8-chloro-2-(2-chloro-5-fluorophenyl)-3-quinolinyl)ethyl)-9H-purin-6-amine] belongs 46.6 nM; to `C[C@H](Nc1ncnc2nc[nH]c12)c1cc2cccc(F)c2nc1-c1cc(F)ccc1F` [N-((1S)-1-(2-(2,5-difluorophenyl)-8-fluoro-3-quinolinyl)ethyl)-7H-purin-6-amine], 12.7 nM; to `Cc1cccc2nc(CNc3ncnc4ccsc34)c(-c3ccccc3Cl)nc12` [N-((3-(2-chlorophenyl)-5-methyl-2-quinoxalinyl)methyl)thieno[3,2-d]pyrimidin-4-amine], 194 nM.
